Consider 4 molecules from patent US11000033B2, “Ketone or oxime compound, and herbicide” (NISSAN CHEMICAL CORPORATION, priority 2014, dated 2021).

What all share (format): in vivo
The test system of data set [1] is Echinochloa crus-galli var. crus-galli. Nature of the data set: Test Example 3: herbicidal effect by foliage application, Wagner pot (symbol H). Conditions: application herbicide amount 320 g/ha. The method in brief: (§1)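 Rating at 3 weeks post-spray, by defined criteria. Treatment: emulsion diluted with water to a predetermined amount, applied evenly to foliage of 14-day-old plants raised in alluvial soil flooded 0.1–0.5 cm deep at 25–30 °C, rice co-sown.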

For data set [2], the system named is Lolium multiflorum Lam. Description: Test Example 4: herbicidal effect by soil treatment (symbol K). The method in brief:
(§2)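 Seeds were sown in sterilized diluvial soil, covered with about 1.5 cm of soil, and the soil surface was sprayed with a water-diluted emulsion of the compound at a predetermined rate. Plants grew in a greenhouse at 25° C. to 30° C.; effects were scored visually 3 weeks after application.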

In a further data set the test system is Apera spica-venti. Description: Test Example 4: herbicidal effect by soil treatment (symbol L). The method in brief:
as §2

The subject of a further data set is rice plant. Description: Test Example 5: effect on crop by foliage application, plastic box (symbol b). Conditions: 320 g/ha, 3 weeks after application. The gist of the method: (§3)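 Diluvial soil, sterilized and boxed (21 × 13 × 7 cm), received spot-sown seed covered by about 1.5 cm soil; plants were then greenhouse-grown at 25–30° C.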
For data set [3], the system named is Lolium multiflorum Lam. Description: Test Example 5: herbicidal effect by foliage application, plastic box (symbol K). Conditions: 320 g/ha, 3 weeks after application. The gist of the method:
(§4)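 Leaf-applied emulsion, water-diluted to a preset herbicide dose, on two-week-old seedlings raised in a 25° C. to 30° C. greenhouse; injury rated at 3 weeks using earlier criteria.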

In another data set the test system is Scirpus juncoides. Nature of the data set: Test Example 2: herbicidal activity, application during weed generation in submerged conditions (symbol B). Conditions: Table 23; application herbicide amount 320 g/ha; grade 0-5 by criteria of Test Example 1. The method in brief: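 Flooded-soil post-emergence test: emulsion of compound, water-diluted to target rate, applied to paddy water surface at 1–2 leaf stage of mixed-sown weeds (alluvial soil, 4 cm water, 25–30° C. greenhouse); visual rating 3 weeks after application.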

For a further data set, the system named is wheat. Nature of the data set: Test Example 5: effect on crop by foliage application, plastic box (symbol e). The settings on record: 320 g/ha, 3 weeks after application. The method in brief: as §3
A further data set concerns Avena fatua. Description: Test Example 5: herbicidal effect by foliage application, plastic box (symbol I). The settings on record: 320 g/ha, 3 weeks after application. The method in brief: as §4
The subject of a further data set is corn. Nature of the data set: Test Example 4: effect on crop by soil treatment (symbol c). The settings on record: for c: corn, effect on crop grade: application herbicide amount 320 g/ha. The method in brief: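 Diluvial soil (sterilized) in boxes; seeds placed spot-wise alongside weed species; ~1.5 cm covering soil. Greenhouse, 25–30° C.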
Data set [4] deals with Echinochloa crus-galli var. crus-galli. Description: Test Example 4: herbicidal effect by soil treatment (symbol H). The method in brief: as §2
The next data set relates to Veronica persica. Nature of the data set: Test Example 5: herbicidal effect by foliage application, plastic box (symbol R). Conditions: 320 g/ha, 3 weeks after application. The method in brief: as §4
Another data set relates to Setaria viridis. Description: Test Example 5: herbicidal effect by foliage application, plastic box (symbol G). Conditions: 320 g/ha, 3 weeks after application. The method in brief: as §4
The next data set has as its system Stellaria media. Nature of the data set: Test Example 5: herbicidal effect by foliage application, plastic box (symbol P). The settings on record: 320 g/ha, 3 weeks after application. The method in brief:
as §4

A further data set concerns rice. Description: Test Example 4: effect on crop by soil treatment (symbol b). The settings on record: for b: directly sowed rice plant, effect on crop grade: application herbicide amount 320 g/ha. The gist of the method:
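Soil-treatment setup: crop and weed seeds were spot-sown into sterilized diluvial soil, then buried beneath approximately 1.5 cm of it, and the boxes were housed in a 25–30° C. greenhouse.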

The next data set deals with Cyperus difformis. Nature of the data set: Test Example 3: herbicidal effect by foliage application, Wagner pot (symbol E). Conditions: application herbicide amount 320 g/ha. The gist of the method:
as §1

The next data set concerns Galium spurium. Nature of the data set: Test Example 4: herbicidal effect by soil treatment (symbol Q). The gist of the method:
as §2

The subject of a further data set is Alopecurus myosuroides. Nature of the data set: Test Example 5: herbicidal effect by foliage application, plastic box (symbol J). The settings on record: 320 g/ha, 3 weeks after application. The gist of the method:
as §4

The mark [5] stands for this setting: application herbicide amount 320 g/ha.

Consider `CON=C(C)CC1CC(O)=C(c2c(C)cc(-c3ccc(Cl)nc3)cc2C)C1=O` (mixture of isomers) [6-035], for which, in [1], the “herbicidal effect on H (Echinochloa crus-galli var. crus-galli), grade 0-5” value (from here on “herbicidal effect on H”) is 5 (Herbicidal ratio of 90% or more (almost completely withered)). For the same molecule, the “K: Lolium multiflorum Lam., herbicidal effect grade” value with Lolium multiflorum Lam. [2] (setting [5]) and in the data set with Lolium multiflorum Lam. [3] was 5 (Herbicidal ratio of 90% or more (almost completely withered)) in each case. In addition, in the data set with Apera spica-venti (setting [5]), the “L: Apera spica-venti, herbicidal effect grade” value (from here on “L: Apera spica-venti”) is given as 5 (Herbicidal ratio of 90% or more (almost completely withered)). Also, the “b: directly sowed rice plant, effect on crop grade” value in the data set with rice plant and in the data set on rice was 5 (Herbicidal ratio of 90% or more (almost completely withered)) in each case. Also, the “Herbicidal effect grade, B: Scirpus juncoides” value (“Herbicidal effect grade, B” for short) with Scirpus juncoides was 4 (Herbicidal ratio of 70% or higher and lower than 90%). In the data set with wheat, the “e: wheat, effect on crop grade” value is 4 (Herbicidal ratio of 70% or higher and lower than 90%). The “I: Avena fatua, herbicidal effect grade” value in the data set with Avena fatua is listed as 5 (Herbicidal ratio of 90% or more (almost completely withered)). Besides, in the data set with corn, the “c: corn, effect on crop grade” value is 2 (Herbicidal ratio of 20% or higher and lower than 40%). Further, the “H: Echinochloa crus-galli var. crus-galli, herbicidal effect grade” value in data set [4] (setting [5]) is 5 (Herbicidal ratio of 90% or more (almost completely withered)). Besides, in the data set on Veronica persica, the “R: Veronica persica, herbicidal effect grade” value was 4 (Herbicidal ratio of 70% or higher and lower than 90%). In addition, in the data set on Setaria viridis, the “G: Setaria viridis, herbicidal effect grade” value was 5 (Herbicidal ratio of 90% or more (almost completely withered)). Moreover, the “P: Stellaria media, herbicidal effect grade” value with Stellaria media was 3 (Herbicidal ratio of 40% or higher and lower than 70%). Also, in the data set on Cyperus difformis, the “herbicidal effect on E, grade 0-5” value was 5 (Herbicidal ratio of 90% or more (almost completely withered)). Besides, the “Q: Galium spurium, herbicidal effect grade” value (“Q: Galium spurium” for short) in the data set with Galium spurium (setting [5]) is 0 (Herbicidal ratio of 5% or lower (almost no effect)). The “J: Alopecurus myosuroides, herbicidal effect grade” value with Alopecurus myosuroides was 5 (Herbicidal ratio of 90% or more (almost completely withered)).
As for `CCOC(=O)C(C(=O)C(F)(F)F)C1CC(O)=C(c2c(C)cc(C)cc2C)C1=O` (centres unmarked) [2-010], in [1], the “herbicidal effect on H” value is 3 (Herbicidal ratio of 40% or higher and lower than 70%). In addition, the “K: Lolium multiflorum Lam., herbicidal effect grade” value in the data set on Lolium multiflorum Lam. [2] (setting [5]) and in the data set on Lolium multiflorum Lam. [3] was 0 (Herbicidal ratio of 5% or lower (almost no effect)) throughout. Besides, the “L: Apera spica-venti” value with Apera spica-venti (setting [5]) is given as 0 (Herbicidal ratio of 5% or lower (almost no effect)). The “b: directly sowed rice plant, effect on crop grade” value in the data set with rice plant and in the data set on rice was 0 (Herbicidal ratio of 5% or lower (almost no effect)) throughout. Moreover, in the data set on Scirpus juncoides, the “Herbicidal effect grade, B” value is on record as 0 (Herbicidal ratio of 5% or lower (almost no effect)). In the data set on wheat, the “e: wheat, effect on crop grade” value is listed as 0 (Herbicidal ratio of 5% or lower (almost no effect)). Also, the “I: Avena fatua, herbicidal effect grade” value in the data set with Avena fatua is 0 (Herbicidal ratio of 5% or lower (almost no effect)). The “c: corn, effect on crop grade” value in the data set on corn is on record as 0 (Herbicidal ratio of 5% or lower (almost no effect)). Also, in data set [4] (setting [5]), the “H: Echinochloa crus-galli var. crus-galli, herbicidal effect grade” value is 0 (Herbicidal ratio of 5% or lower (almost no effect)). In the data set with Veronica persica, the “R: Veronica persica, herbicidal effect grade” value is given as 0 (Herbicidal ratio of 5% or lower (almost no effect)). Also, the “G: Setaria viridis, herbicidal effect grade” value in the data set on Setaria viridis is given as 0 (Herbicidal ratio of 5% or lower (almost no effect)). Moreover, the “P: Stellaria media, herbicidal effect grade” value in the data set with Stellaria media is recorded as 0 (Herbicidal ratio of 5% or lower (almost no effect)). In the data set on Cyperus difformis, the “herbicidal effect on E, grade 0-5” value is recorded as 0 (Herbicidal ratio of 5% or lower (almost no effect)). Also, the “Q: Galium spurium” value in the data set with Galium spurium (setting [5]) is given as 0 (Herbicidal ratio of 5% or lower (almost no effect)). The “J: Alopecurus myosuroides, herbicidal effect grade” value in the data set with Alopecurus myosuroides was 0 (Herbicidal ratio of 5% or lower (almost no effect)).
As to `CON=C(C)CC1CC(OC(=O)c2ccccc2C(F)(F)F)=C(c2c(C)cc(C)cc2C)C1=O` (centres unmarked) [1-154], the “herbicidal effect on H” value in data set [1] is given as 5 (Herbicidal ratio of 90% or more (almost completely withered)). In the data set on Lolium multiflorum Lam. [2] (320 g/ha), the “K: Lolium multiflorum Lam., herbicidal effect grade” value was 5 (Herbicidal ratio of 90% or more (almost completely withered)). For the same molecule, in the data set with Apera spica-venti (320 g/ha), the “L: Apera spica-venti” value is listed as 5 (Herbicidal ratio of 90% or more (almost completely withered)). In the data set on rice plant, the “b: directly sowed rice plant, effect on crop (criteria 0-5)” value is 5 (Herbicidal ratio of 90% or more (almost completely withered)). Also, the “K: Lolium multiflorum Lam., herbicidal effect (criteria 0-5)” value in the data set on Lolium multiflorum Lam. [3] is reported as 5 (Herbicidal ratio of 90% or more (almost completely withered)). Besides, the “Herbicidal effect grade, B” value with Scirpus juncoides was 4 (Herbicidal ratio of 70% or higher and lower than 90%). The “e: wheat, effect on crop (criteria 0-5)” value in the data set with wheat was 5 (Herbicidal ratio of 90% or more (almost completely withered)). The “I: Avena fatua, herbicidal effect (criteria 0-5)” value with Avena fatua was 5 (Herbicidal ratio of 90% or more (almost completely withered)). Also, in the data set on corn (320 g/ha), the “c: corn, effect grade on crop” value is 0 (Herbicidal ratio of 5% or lower (almost no effect)). Also, the “H: Echinochloa crus-galli var. crus-galli, herbicidal effect grade” value in [4] (320 g/ha) is reported as 5 (Herbicidal ratio of 90% or more (almost completely withered)). In addition, the “R: Veronica persica, herbicidal effect (criteria 0-5)” value in the data set with Veronica persica was 3 (Herbicidal ratio of 40% or higher and lower than 70%). Also, in the data set with Setaria viridis, the “G: Setaria viridis, herbicidal effect (criteria 0-5)” value is listed as 5 (Herbicidal ratio of 90% or more (almost completely withered)). In addition, the “P: Stellaria media, herbicidal effect (criteria 0-5)” value with Stellaria media was 2 (Herbicidal ratio of 20% or higher and lower than 40%). Besides, the “b: directly sowed rice plant, effect grade on crop” value in the data set on rice (320 g/ha) is 5 (Herbicidal ratio of 90% or more (almost completely withered)). Moreover, the “herbicidal effect on E, grade 0-5” value in the data set on Cyperus difformis was 5 (Herbicidal ratio of 90% or more (almost completely withered)). For the same molecule, the “Q: Galium spurium” value with Galium spurium (320 g/ha) was 0 (Herbicidal ratio of 5% or lower (almost no effect)). The “J: Alopecurus myosuroides, herbicidal effect (criteria 0-5)” value in the data set on Alopecurus myosuroides is 5 (Herbicidal ratio of 90% or more (almost completely withered)).
Regarding `Cc1cc(C)c(C2=C(O)CC(CC(=O)CC3CC3)C2=O)c(C)c1` (centres unmarked) [2-026], the “herbicidal effect on H” value in data set [1] is reported as 5 (Herbicidal ratio of 90% or more (almost completely withered)). Besides, the “K: Lolium multiflorum Lam., herbicidal effect grade” value in the data set on Lolium multiflorum Lam. [2] (setting [5]) and with Lolium multiflorum Lam. [3] was 5 (Herbicidal ratio of 90% or more (almost completely withered)) in each case. Also, in the data set with Apera spica-venti (setting [5]), the “L: Apera spica-venti” value is 2 (Herbicidal ratio of 20% or higher and lower than 40%). Besides, the “b: directly sowed rice plant, effect on crop grade” value in the data set with rice plant and in the data set on rice was 5 (Herbicidal ratio of 90% or more (almost completely withered)) in each case. Moreover, the “Herbicidal effect grade, B” value in the data set on Scirpus juncoides is 3 (Herbicidal ratio of 40% or higher and lower than 70%). Also, the “e: wheat, effect on crop grade” value in the data set on wheat is recorded as 0 (Herbicidal ratio of 5% or lower (almost no effect)). Further, in the data set on Avena fatua, the “I: Avena fatua, herbicidal effect grade” value is 4 (Herbicidal ratio of 70% or higher and lower than 90%). For the same molecule, the “c: corn, effect on crop grade” value with corn is 1 (Herbicidal ratio of 5% or higher and lower than 20%). Besides, the “H: Echinochloa crus-galli var. crus-galli, herbicidal effect grade” value in data set [4] (setting [5]) is 5 (Herbicidal ratio of 90% or more (almost completely withered)). In addition, the “R: Veronica persica, herbicidal effect grade” value in the data set with Veronica persica was 0 (Herbicidal ratio of 5% or lower (almost no effect)). The “G: Setaria viridis, herbicidal effect grade” value in the data set with Setaria viridis is 5 (Herbicidal ratio of 90% or more (almost completely withered)). In addition, in the data set with Stellaria media, the “P: Stellaria media, herbicidal effect grade” value is on record as 0 (Herbicidal ratio of 5% or lower (almost no effect)). For the same molecule, the “herbicidal effect on E, grade 0-5” value in the data set with Cyperus difformis is recorded as 5 (Herbicidal ratio of 90% or more (almost completely withered)). In addition, in the data set with Galium spurium (setting [5]), the “Q: Galium spurium” value is 0 (Herbicidal ratio of 5% or lower (almost no effect)). Moreover, the “J: Alopecurus myosuroides, herbicidal effect grade” value in the data set on Alopecurus myosuroides was 4 (Herbicidal ratio of 70% or higher and lower than 90%).
